For series [1], the system named is HIV. Briefly: Phase II three-arm study atazanavir vs ritonavir, each with saquinavir + 2 NRTIs: antiviral activity. The series is classed as in vivo. The settings on record: atazanavir groups vs ritonavir. As to the method: (§1) In another two-stage, randomized three-arm Phase II study, the antiviral activity and metabolic effects of atazanavir at two different doses (400 mg or 600 mg) was compared to ritonavir, each in combination with saquinavir over 48 weeks. The protease inhibitors were administered in combination with two nucleoside reverse transcriptase inhibitors selected from didanosine, stavudine, lamivudine or zidovudine. The selection of reverse transcriptase inhibitors (used in combination as didanosine+stavudine, stavudine+lamivudine, didanosine+zidovudine, or lamivudine+zidovudine) was based on the patient's phenotypic sensitivity and the physician's choice at the time of administration. The regimens were as follows: […]
(§2) atazanavir 400 mg QD+saquinavir 1200 mg QD+2 nucleoside reverse transcriptase inhibitors atazanavir 600 mg QD+saquinavir 1200 mg QD+2 nucleoside reverse transcriptase inhibitors ritonavir 400 mg BID+saquinavir 400 mg BID+2 nucleoside reverse transcriptase inhibitors Patients were anti-retroviral-experienced with a treatment history of receiving a minimum of 24 weeks of a protease inhibitor-containing or non-nucleoside reverse transcriptase inhibitor-containing combination regimen. Stage 1 was to randomize approximately 75 subjects to assess the safety and antiviral activity of the regimens. […]

The test system of series [2] is HIV. Nature of the series: Phase II randomized study atazanavir vs nelfinavir: anti-HIV activity (viral load). Format: in vivo. Particulars: atazanavir 200, 400 or 500 mg once daily, monotherapy two weeks then with stavudine and didanosine; treatment-naive patients. On the procedure:
In a Phase II randomized study, the safety and anti-HIV activity of three once daily doses of atazanavir (200 mg, 400 mg and 500 mg) was compared with 750 mg of the protease inhibitor, nelfinavir dosed three times daily. Twenty-one patients received nelfinavir in combination with stavudine and didanosine, while atazanavir was administered both as monotherapy (for two weeks) and then in combination with stavudine and didanosine to 78 treatment-naive (no prior anti-HIV therapy) patients with HIV viral loads >2000 copies per milliliter (c/mL).

For series [3] the following is noted: human, in vivo. An excerpt:
In clinical studies carried out on 98 HIV-positive patients who have taken atazanavir for one year, no increases in plasma LDL-cholesterol or triglycerides were observed. Thus, atazanavir is particularly useful in the treatment of HIV-positive patients who have elevated plasma LDL-cholesterol and/or triglyceride levels. It can be used as monotherapy or as part of a “cocktail” which would include other antiretroviral drugs such as reverse transcriptase inhibitors, non-nucleoside reverse transcriptase inhibitors, and other HIV protease inhibitors.

In a further series the test system is CYP3A. Briefly: Inhibition of cytochrome P450 3A enzyme. The series is classed as biochemical. An excerpt:
Similarly, appropriate dosing of other HIV protease inhibitors to be used in combination with atazanavir can be calculated.

On the set-up of series [4]: species or system human. Particulars: in vivo. On the procedure:
as §1, §2

For series [5] the following is noted: saquinavir dosed at 1200 mg TID; at steady-state; cited from earlier work.

Take `COC(=O)N[C@H](C(=O)N[C@@H](Cc1ccccc1)[C@@H](O)CN(Cc1ccc(-c2ccccn2)cc1)NC(=O)[C@@H](NC(=O)OC)C(C)(C)C)C(C)(C)C` [atazanavir]: in the series on HIV [1], the “antiviral efficacy through week 12, compared to ritonavir” value was “similar”. In addition, in the series on HIV [2], the “reductions in viral load compared to the nelfinavir-treated patients” value was “at least comparable”. In addition, in series [3], the “increases in plasma LDL-cholesterol” value is “no increases” and the “increases in plasma triglycerides” value is “no increases”. Further, the Ki in the series with CYP3A amounted to 2400 nM. In addition, the “LDL-cholesterol elevation over baseline” value in series [4] is “not elevated”.

Take `Cc1c(O)cccc1C(=O)N[C@@H](CSc1ccccc1)[C@H](O)CN1C[C@H]2CCCC[C@H]2C[C@H]1C(=O)NC(C)(C)C` [nelfinavir]: the “increase of the exposure of saquinavir” value in series [5] is recorded as 392%.

One may read the Ki as a measure of affinity in units of concentration, obtained from inhibition or displacement.

Source of the values: US20030045501A1, “Use of atazanavir in HIV therapy” (priority 2001, published 2003).
